Measured values taken from ChEMBL document CHEMBL6153135, “Rational Design of a Potent, Selective, and Metabolically Stable CDK9 Inhibitor to Counteract Osimertinib Resistance through Mcl-1 Suppression and Enhanced BRD4 Co-Targeting” (J Med Chem, 2025).
Active and inactive are the calls of the source. The rule behind the calls is not given here.

Experiments:
[1] = tested on: Osimertinib-resistant NCI-H1975 cell; test: Induction of apoptosis in human Osimertinib-resistant NCI-H1975 cells assessed as early apoptotic cells at 0.5 uM incubated for 16 hrs by Annexin V-FITC/PI staining based flow cytometry (reference value: 8.02 %); format: functional
[2] = tested on: Osimertinib-resistant HCC827 cell; test: Inhibition of homologous recombination repair in human Osimertinib-resistant HCC827 cells by KEGG analysis; format: functional, cell-based
[3] = Drug concentration in tumor of BALB-c nude mouse xenografted with human NCI-H1975 cells at 15 mg/kg, iv measured after 30 mins by LC-MS/MS analysis; format: ADME, organism-based, Neoplasm; settings: read-out: Ct
[4] = biological target: Glycogen synthase kinase-3 alpha (Homo sapiens) (UniProt P49840); test: Inhibition of GSK3-alpha (unknown origin) at 100 nM preincubated for 10 mins followed by substrate/ATP measured after 60 mins by ADP-Glo assay relative to control; settings: time 70.0 min
Sequence of Glycogen synthase kinase-3 alpha (Homo sapiens) (P49840 2-483 limits assumed): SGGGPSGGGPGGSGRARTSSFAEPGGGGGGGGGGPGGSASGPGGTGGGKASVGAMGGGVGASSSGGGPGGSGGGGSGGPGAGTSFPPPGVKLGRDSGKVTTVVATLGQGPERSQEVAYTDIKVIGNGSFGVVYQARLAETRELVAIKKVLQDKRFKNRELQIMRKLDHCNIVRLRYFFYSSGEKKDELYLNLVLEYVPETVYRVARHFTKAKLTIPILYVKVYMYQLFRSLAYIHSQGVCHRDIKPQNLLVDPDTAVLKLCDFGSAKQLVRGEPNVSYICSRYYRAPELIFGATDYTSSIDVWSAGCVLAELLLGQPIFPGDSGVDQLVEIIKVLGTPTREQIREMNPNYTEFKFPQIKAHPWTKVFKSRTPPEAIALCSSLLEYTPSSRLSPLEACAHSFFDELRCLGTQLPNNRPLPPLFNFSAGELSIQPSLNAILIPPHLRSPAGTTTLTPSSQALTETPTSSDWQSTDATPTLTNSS

[5] = Toxicity in BALB-c nude mouse xenografted with human NCI-H1975 cells assessed as pathological damage in kidney at 15 mg/kg, iv administered on every two days by H and E staining based analysis; format: organism-based; settings: in vivo
[6] = tested on: Lung adenocarcinoma organoid; test: Anti-tumor activity against Osimertinib-resistant patient (#0085)-derived human Lung adenocarcinoma organoid assessed as inhibition of cell viability measured after 96 hrs relative to control; format: functional, Neoplasm
[7] = Toxicity in BALB-c mouse xenografted with human NCI-H1975 cells assessed as decrease in body weight at 5 mg/kg, iv in presence of JQ1; format: organism-based; settings: in vivo
[8] = tested on: Lung adenocarcinoma organoid; test: Anti-tumor activity against patient (#2223)-derived human Lung adenocarcinoma organoid assessed as inhibition of cell viability measured after 96 hrs; format: functional, tissue-based; settings: Neoplasm
[9] = Toxicity in BALB-c nude mouse xenografted with human NCI-H1975 cells assessed as pathological damage in lung at 15 mg/kg, iv administered on every two days by H and E staining based analysis; format: organism-based; settings: in vivo
[10] = Toxicity in BALB-c mouse xenografted with human Osimertinib-resistant HCC827 cells assessed as decrease in body weight at 5 mg/kg, iv in presence of JQ1; format: organism-based; settings: in vivo
[11] = tested on: Osimertinib-resistant NCI-H1975 cell; test: Anti-proliferative activity against human Osimertinib-resistant NCI-H1975 cells assessed as cell inhibition measured after 72 hrs by MTT assay; format: functional, cell-based
NCI-H1975 [12] = test: Antitumor activity against human NCI-H1975 cells xenografted in BALB-c nude mouse at 30 mg/kg, po administered on every two days relative to control; format: functional; settings: NCI-H1975, 48 h, read-out: TGI
[13] = Tmax in BALB/c mouse at 15 mg/kg, po; format: ADME, organism-based; settings: in vivo
[14] = biological target: Cyclin-dependent kinase 9 (Homo sapiens) (UniProt P50750); test: Inhibition of CDK9 in human Osimertinib-resistant HCC827 cells assessed as decrease in Mcl-1 mRNA level by RNA-Seq analysis; format: cell-based; settings: Osimertinib-resistant HCC827 cell
Sequence of Cyclin-dependent kinase 9 (Homo sapiens) (P50750 whole entry): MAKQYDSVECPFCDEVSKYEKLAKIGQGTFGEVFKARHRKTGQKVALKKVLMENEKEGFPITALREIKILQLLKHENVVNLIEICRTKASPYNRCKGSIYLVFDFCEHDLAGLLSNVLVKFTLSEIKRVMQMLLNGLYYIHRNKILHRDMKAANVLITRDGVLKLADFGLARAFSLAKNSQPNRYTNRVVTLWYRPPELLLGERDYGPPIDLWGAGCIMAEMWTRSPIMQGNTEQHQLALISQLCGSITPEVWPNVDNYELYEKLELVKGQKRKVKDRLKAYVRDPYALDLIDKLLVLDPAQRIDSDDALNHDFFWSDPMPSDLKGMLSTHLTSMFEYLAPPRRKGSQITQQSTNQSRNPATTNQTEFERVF

[15] = tested on: Osimertinib-resistant NCI-H1975 cell; test: Induction of apoptosis in human Osimertinib-resistant NCI-H1975 cells assessed as necrotic cells at 0.5 uM incubated for 16 hrs by Annexin V-FITC/PI staining based flow cytometry (reference value: 1.17 %); format: functional
[16] = AUC (0 to t) in Sprague-Dawley rat at 20 mg/kg, po; format: ADME, organism-based; settings: in vivo
[17] = biological target: Cyclin-dependent kinase 4/cyclin D1 (Homo sapiens) (UniProt P11802+P24385); test: Inhibition of CDK4/Cyclin D1 (unknown origin) at 100 nM preincubated for 10 mins followed by substrate/ATP measured after 60 mins by ADP-Glo assay relative to control; format: protein-complex assay; settings: time 70.0 min
[18] = Half life in Sprague-Dawley rat at 20 mg/kg, po; format: ADME, organism-based; settings: in vivo
[19] = Clearance in Sprague-Dawley rat at 20 mg/kg, po; format: ADME, organism-based; settings: in vivo
[20] = Apparent volume of distribution in Sprague-Dawley rat at 2 mg/kg, iv; format: ADME, organism-based; settings: in vivo, read-out: Vz
[21] = tested on: Osimertinib-resistant NCI-H1975 cell; test: Inhibition of colony formation in human Osimertinib-resistant NCI-H1975 cells at 25 nM measured after 14 days by crystal violet staining based analysis relative to control; format: functional; settings: 336 h, time 14 day
HCC827 [22] = test: Anti-proliferative activity against human HCC827 cells assessed as cell inhibition measured after 72 hrs in presence of 100 nM JQ1 by MTT assay; format: functional, cell-based; settings: HCC827, 72 h
[23] = Metabolic stability in pig liver microsomes assessed as half life measured for 5 to 60 mins by LC-MS/MS analysis; format: ADME, Sus scrofa, Microsome; settings: time 5-60 min
[24] = tested on: Osimertinib-resistant HCC827 cell; test: Inhibition of DNA replication in human Osimertinib-resistant HCC827 cells by KEGG analysis; format: functional, cell-based
[25] = tested on: Lewis lung carcinoma cell line; test: Anti-proliferative activity against Lewis lung carcinoma cells assessed as cell inhibition measured after 72 hrs by MTT assay; format: functional, cell-based; settings: Mus musculus
[26] = biological target: CDK7/Cyclin H/MNAT1 (Homo sapiens) (UniProt P51946+P50613+P51948); test: Inhibition of CDK7/Cyclin H/MAT1 (unknown origin) at 100 nM preincubated for 10 mins followed by substrate/ATP measured after 60 mins by ADP-Glo assay relative to control; format: protein-complex assay; settings: time 70.0 min
[27] = Metabolic stability in rat liver microsomes assessed as clearance measured for 5 to 60 mins by LC-MS/MS analysis; format: ADME, Microsome; settings: time 5-60 min, read-out: CLH
HCC827 [28] = test: Anti-proliferative activity against human HCC827 cells assessed as cell inhibition measured after 72 hrs in presence of 500 nM JQ1 by MTT assay; format: functional, cell-based; settings: HCC827, 72 h
[29] = tested on: Lung adenocarcinoma organoid; test: Anti-tumor activity against multidrug-resistant patient (#2663)-derived human Lung adenocarcinoma organoid assessed as inhibition of cell viability measured after 96 hrs; format: functional, tissue-based; settings: Neoplasm
HCC827 [30] = test: Selectivity ratio of IC50 for anti-proliferative activity against human HCC827 cells to IC50 for anti-proliferative activity against human HCC827 cells in presence of JQ1; format: functional
[31] = Antitumor activity against human Osimertinib-resistant HCC827 cells xenografted in BALB-c nude mouse assessed as tumor growth inhibition at 5 mg/kg, iv in presence of JQ1 relative to control; format: functional; settings: Osimertinib-resistant HCC827 cell, read-out: TGI
HCC827 [32] = test: Anti-proliferative activity against human HCC827 cells assessed as cell inhibition measured after 72 hrs by MTT assay; format: functional, cell-based; settings: HCC827, 72 h
[33] = biological target: Cyclin-dependent kinase 2/cyclin E1 (Homo sapiens) (UniProt P24864+P24941); test: Inhibition of CDK2/cyclin E1 (unknown origin) at 100 nM preincubated for 10 mins followed by substrate/ATP measured after 60 mins by ADP-Glo assay relative to control; format: protein-complex assay; settings: time 70.0 min
NCI-H1975 [34] = test: Anti-proliferative activity against human NCI-H1975 cells assessed as cell inhibition measured after 72 hrs by MTT assay; format: functional, cell-based; settings: NCI-H1975, 72 h
NCI-H1975 [35] = test: Anti-proliferative activity against human NCI-H1975 cells assessed as cell inhibition measured after 72 hrs in presence of 500 nM JQ1 by MTT assay; format: functional, cell-based; settings: NCI-H1975, 72 h
[36] = tested on: Lung adenocarcinoma organoid; test: Anti-tumor activity against patient (#2514)-derived human Lung adenocarcinoma organoid assessed as inhibition of cell viability measured after 96 hrs relative to control; format: functional, Neoplasm
[37] = Metabolic stability in mouse liver microsomes assessed as half life measured for 5 to 60 mins by LC-MS/MS analysis; format: ADME, Microsome; settings: time 5-60 min

CC(=O)N1CCC(NC(=O)c2ccc3cc2OCCCCCCOc2cc(ccc2F)-c2nc(ncc2F)N3)CC1
Activity [1]: 25.4%
inhibition [2]: Active
concentration at 0.5 h [3]: 864 ng/mL
inhibition [4]: 97.5%
Activity [5]: Non-toxic
Imax [6]: >98%
Activity [7]: Non-toxic
IC50 [8]: < 50 nM
Activity [9]: Non-toxic
Activity [10]: Non-toxic
IC50 [11]: 50 nM
inhibition in vivo at 30 mg/kg (NCI-H1975 [12]): 52.5%
Tmax [13]: 33.6 min
inhibition [14]: Active
Activity [15]: 1.46%
AUC(0-t) [16]: 3610 ng·h/mL
inhibition [17]: 25.7%
half-life [18]: 402 min
CL/F [19]: 63.3 mL/min/kg
Vd [20]: 1.9 L/kg
inhibition at 0.025 µM [21]: 100%
IC50 (HCC827 [22]): 30.6 nM
half-life [23]: 39.3 min
inhibition [24]: Active
IC50 [25]: 170 nM
inhibition [26]: 11.9%
microsomal CLint [27]: 38.4 µL/min/mg
IC50 (HCC827 [28]): 9.7 nM
IC50 [29]: < 50 nM
Ratio IC50 (HCC827 [30]): 10
inhibition in vivo at 5 mg/kg [31]: 71.5%
IC50 (HCC827 [32]): 150 nM
inhibition [33]: 50.2%
IC50 (NCI-H1975 [34]): 110 nM
IC50 (NCI-H1975 [35]): 4.7 nM
Imax [36]: 99.9%
half-life [37]: 64.2 min
